Reference: patent publication US8802597B2, “Herbicidal pyrimidines” (E I du Pont de Nemours and Company, priority 2003, dated 2014)

How the values were obtained:
Experiment in all cases: Test E flooded paddy water application
Assay type in all cases: in vivo
[1] = test system: smallflower umbrella sedge (Cyperus difformis); details: Flood, 21 days, scale 0 to 100 (0 no effect, 100 complete control); for Plant response rating, Sedge, Umbrella: 16 g ai/ha
Procedure, shortened: (§1)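 Greenhouse pots of Tama silt loam with weeds and rice at 2.0–2.5-leaf stage, flooded to 3 cm; compounds applied directly into paddy water, depth maintained. Visual rating versus untreated controls after 21 days, 0 (no effect) to 100 (complete control); 29.5/26.7 °C, 16-h photoperiod.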

[2] = test system: transplanted rice seedlings (Oryza sativa cv. ‘Japonica-M202’); details: Flood, 21 days, scale 0 to 100 (0 no effect, 100 complete control); for Plant response rating, Rice, Transplanted: 16 g ai/ha
Procedure, shortened: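 Response scored visually on a 0–100 scale (100 = complete control) at 21 days against untreated pots. Treatment was into paddy water 3 cm deep over silt loam, with plants at the 2.0–2.5-leaf stage, grown under 16-h light at 29.5/26.7 °C day/night.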

[3] = test system: ducksalad (Heteranthera limosa); details: Flood, 21 days, scale 0 to 100 (0 no effect, 100 complete control); for Plant response rating, Ducksalad: 16 g ai/ha
Procedure, shortened: as §1

[4] = test system: barnyardgrass (Echinochloa crus-galli); details: Flood, 21 days, scale 0 to 100 (0 no effect, 100 complete control); for Plant response rating, Barnyardgrass: 16 g ai/ha
Procedure, shortened: as §1

[5] = test system: late watergrass (Echinochloa oryzicola); details: Flood, 21 days, scale 0 to 100 (0 no effect, 100 complete control); for Plant response rating, Watergrass, Late: 16 g ai/ha
Procedure, shortened: as §1

[6] = test system: early watergrass (Echinochloa oryzoides); details: Flood, 21 days, scale 0 to 100 (0 no effect, 100 complete control); for Plant response rating, Watergrass, Early: 16 g ai/ha
Procedure, shortened: as §1

[7] = test system: water seeded rice seedlings (Oryza sativa cv. ‘Japonica-M202’); details: Flood, 21 days, scale 0 to 100 (0 no effect, 100 complete control); for Plant response rating, Rice, Water Seeded: 16 g ai/ha
Procedure, shortened: as §1

[8] = test system: junglerice (Echinochloa colona); details: Flood, 21 days, scale 0 to 100 (0 no effect, 100 complete control); for Plant response rating, Junglerice: 16 g ai/ha
Procedure, shortened: as §1

[9] = test system: bearded (brdd.) sprangletop (Leptochloa fusca ssp. fascicularis); details: Flood, 21 days, scale 0 to 100 (0 no effect, 100 complete control)
Procedure, shortened: as §1

[10] = test system: rice flatsedge (Cyperus iria); details: Flood, 21 days, scale 0 to 100 (0 no effect, 100 complete control)
Procedure, shortened: as §1

Compound: CCOC(=O)c1nc(-c2ccc3c(c2)OCO3)nc(N)c1Cl [Compound 74]
- Sedge, Umbrella plant response rating ([1]; 32 g ai/ha): 0
- Sedge, Umbrella plant response rating ([1]; 64 g ai/ha): 80
- Sedge, Umbrella plant response rating ([1]; 125 g ai/ha): 95
- Sedge, Umbrella plant response rating ([1]; 250 g ai/ha): 100
- Plant response rating, Sedge, Umbrella [1]: 0
- Rice, Transplanted plant response rating ([2]; 32 g ai/ha): 0
- Rice, Transplanted plant response rating ([2]; 64 g ai/ha): 0
- Rice, Transplanted plant response rating ([2]; 125 g ai/ha): 0
- Rice, Transplanted plant response rating ([2]; 250 g ai/ha): 0
- Plant response rating, Rice, Transplanted [2]: 0
- Ducksalad plant response rating ([3]; 32 g ai/ha): 100
- Ducksalad plant response rating ([3]; 64 g ai/ha): 100
- Ducksalad plant response rating ([3]; 125 g ai/ha): 100
- Ducksalad plant response rating ([3]; 250 g ai/ha): 100
- Plant response rating, Ducksalad [3]: 100
- Barnyardgrass plant response rating ([4]; 32 g ai/ha): 0
- Barnyardgrass plant response rating ([4]; 64 g ai/ha): 0
- Barnyardgrass plant response rating ([4]; 250 g ai/ha): 0
- Plant response rating, Barnyardgrass [4]: 0
- Watergrass, Late plant response rating ([5]; 32 g ai/ha): 0
- Watergrass, Late plant response rating ([5]; 64 g ai/ha): 0
- Watergrass, Late plant response rating ([5]; 125 g ai/ha): 0
- Watergrass, Late plant response rating ([5]; 250 g ai/ha): 0
- Plant response rating, Watergrass, Late [5]: 0
- Watergrass, Early plant response rating ([6]; 32 g ai/ha): 0
- Watergrass, Early plant response rating ([6]; 64 g ai/ha): 0
- Watergrass, Early plant response rating ([6]; 125 g ai/ha): 0
- Watergrass, Early plant response rating ([6]; 250 g ai/ha): 0
- Plant response rating, Watergrass, Early [6]: 0
- Rice, Water Seeded plant response rating ([7]; 32 g ai/ha): 0
- Rice, Water Seeded plant response rating ([7]; 64 g ai/ha): 0
- Rice, Water Seeded plant response rating ([7]; 125 g ai/ha): 0
- Rice, Water Seeded plant response rating ([7]; 250 g ai/ha): 0
- Plant response rating, Rice, Water Seeded [7]: 0
- Junglerice plant response rating ([8]; 32 g ai/ha): 0
- Junglerice plant response rating ([8]; 64 g ai/ha): 0
- Junglerice plant response rating ([8]; 125 g ai/ha): 0
- Junglerice plant response rating ([8]; 250 g ai/ha): 65
- Plant response rating, Junglerice [8]: 0
- Sprangletop, Brdd. plant response rating ([9]; 32 g ai/ha): 0
- Sprangletop, Brdd. plant response rating ([9]; 64 g ai/ha): 0
- Sprangletop, Brdd. plant response rating ([9]; 125 g ai/ha): 0
- Sprangletop, Brdd. plant response rating ([9]; 250 g ai/ha): 0
- Plant response rating, Sprangletop, Brdd. ([9]; 16 g ai/ha): 0
- Flatsedge, Rice plant response rating ([10]; 32 g ai/ha): 0
- Flatsedge, Rice plant response rating ([10]; 64 g ai/ha): 0
- Flatsedge, Rice plant response rating ([10]; 125 g ai/ha): 90
- Flatsedge, Rice plant response rating ([10]; 250 g ai/ha): 95
- Plant response rating, Flatsedge, Rice ([10]; 16 g ai/ha): 0

Compound: Cc1ccc(-c2nc(N)c(Cl)c(C(=O)O)n2)cc1 [Compound 91]
- Sedge, Umbrella plant response rating ([1]; 32 g ai/ha): 0
- Sedge, Umbrella plant response rating ([1]; 64 g ai/ha): 30
- Sedge, Umbrella plant response rating ([1]; 125 g ai/ha): 100
- Sedge, Umbrella plant response rating ([1]; 250 g ai/ha): 100
- Plant response rating, Sedge, Umbrella [1]: 0
- Rice, Transplanted plant response rating ([2]; 32 g ai/ha): 0
- Rice, Transplanted plant response rating ([2]; 64 g ai/ha): 0
- Rice, Transplanted plant response rating ([2]; 125 g ai/ha): 0
- Rice, Transplanted plant response rating ([2]; 250 g ai/ha): 10
- Plant response rating, Rice, Transplanted [2]: 0
- Ducksalad plant response rating ([3]; 32 g ai/ha): 100
- Ducksalad plant response rating ([3]; 64 g ai/ha): 100
- Ducksalad plant response rating ([3]; 125 g ai/ha): 100
- Ducksalad plant response rating ([3]; 250 g ai/ha): 100
- Plant response rating, Ducksalad [3]: 100
- Barnyardgrass plant response rating ([4]; 32 g ai/ha): 0
- Barnyardgrass plant response rating ([4]; 64 g ai/ha): 10
- Barnyardgrass plant response rating ([4]; 125 g ai/ha): 10
- Barnyardgrass plant response rating ([4]; 250 g ai/ha): 10
- Plant response rating, Barnyardgrass [4]: 0
- Watergrass, Late plant response rating ([5]; 32 g ai/ha): 0
- Watergrass, Late plant response rating ([5]; 64 g ai/ha): 0
- Watergrass, Late plant response rating ([5]; 125 g ai/ha): 0
- Watergrass, Late plant response rating ([5]; 250 g ai/ha): 0
- Plant response rating, Watergrass, Late [5]: 0
- Watergrass, Early plant response rating ([6]; 32 g ai/ha): 0
- Watergrass, Early plant response rating ([6]; 64 g ai/ha): 0
- Watergrass, Early plant response rating ([6]; 125 g ai/ha): 0
- Watergrass, Early plant response rating ([6]; 250 g ai/ha): 0
- Plant response rating, Watergrass, Early [6]: 0
- Rice, Water Seeded plant response rating ([7]; 32 g ai/ha): 0
- Rice, Water Seeded plant response rating ([7]; 64 g ai/ha): 10
- Rice, Water Seeded plant response rating ([7]; 125 g ai/ha): 10
- Rice, Water Seeded plant response rating ([7]; 250 g ai/ha): 20
- Plant response rating, Rice, Water Seeded [7]: 0
- Junglerice plant response rating ([8]; 32 g ai/ha): 0
- Junglerice plant response rating ([8]; 64 g ai/ha): 0
- Junglerice plant response rating ([8]; 125 g ai/ha): 0
- Junglerice plant response rating ([8]; 250 g ai/ha): 70
- Plant response rating, Junglerice [8]: 0
- Sprangletop, Brdd. plant response rating ([9]; 32 g ai/ha): 0
- Sprangletop, Brdd. plant response rating ([9]; 64 g ai/ha): 0
- Sprangletop, Brdd. plant response rating ([9]; 125 g ai/ha): 30
- Sprangletop, Brdd. plant response rating ([9]; 250 g ai/ha): 30
